From patent publication US12251401B2, “Synthesis and antimicrobial uses of dinuclear silver(I) pyrazolates” (The Florida International University Board of Trustees, priority 2018, dated 2025)
Where two headings read alike, the source gives them in different places.

Legend:
Pseudomonas aeruginosa = assay: Skin and soft tissue infection (SSTI) two-layer agar model, zone of inhibition around KBr pellets; assay type: cell-based; conditions: KBr pellet with 2% (w/w) of substance on P. aeruginosa lawn, incubation at 37° C. for 18 h
From the text: A skin and soft tissue infection (SSTI) model was used to study the antibacterial properties of three silver complexes. In this model, two layers of agar were employed to mimic a tissue infection with a nutrient rich bottom and the soft-top layer to allow for even dispersal of bacteria. The top soft agar acts like the skin and as bacteria grow they migrate towards the bottom nutrient layer mimicking an infected tissue. Frozen samples of Pseudomonas Aeruginosa were thawed and streaked on an agar plate. A single colony was selected and grown in Luria Broth (LB) for 18 h. The suspension was diluted with LB until an A600 (absorbance) of 0.5 was reached. The soft agar bacterial suspension was prepared by adding 120 mL of the above solution to 100 mL 0.8% (w/v) agar with 1% NaCl, which had been autoclaved and cooled to 45° C. before addition. The suspension was gently vortexed and 8 mL was spread evenly on the surface of 20 mL of a 1.5% (w/v) TSB agar plate (100×15 mm^2) and allowed to solidify. The plates were incubated for 2 h at 37° C. in order for the bacteria to reach log phase before bactericidal experiments were performed.
Blank KBr pellets (typically utilized for recording IR spectra) and KBr pellets with 2% (w/w) of three complexes (1), (2) and (5), each weighing between 34 and 46 mg, were evenly mulled and pressed with a two-ton load. Three blanks, containing PTA, or 4-Cl-pzH, or PPh3, were also prepared in the same manner. Pellets were carefully placed on the plates (see Example 8) after 2 h of incubation at 37° C.
A previously developed soft tissue infection (SSTI) model has been utilized for the present antibacterial studies. […] The gradient causes the bacteria to slowly travel from the slender top layer to the nutrient-rich bottom layer, much alike what would occur in a typical skin infection.

P. aeruginosa = assay: Bacterial eradication assessed using the optical density method; assay type: cell-based, Pseudomonas aeruginosa
From the text: FIGS. 51A-51B show the results of bacterial eradication by compounds of complex (5) and complex (29) assessed using the optical density method.
(§1) Both complex (5) and complex (29) were comparatively tested against P. aeruginosa.

Solubility (qualitative) = assay type: physicochemical
From the text: All complexes provided herein were neutral and soluble in variety of organic solvents.
as §1

Row | Molecule | zone of bacterial clearing (zone of inhibition) (Pseudomonas aeruginosa) | other results
1 | Clc1cn[nH]c1 [4-Cl-pzH, 4-Cl-pyrazole] | much smaller but still visible zones of bacterial growth inhibition | 
2 | O=[N+]([O-])[O-].[Ag+] [AgNO3, silver nitrate] | Visible circular zones of bacterial clearing | 
3 | c1ccc(P(c2ccccc2)c2ccccc2)cc1 [PPh3, triphenylphosphine] | no zone of inhibition | 
4 | C1N2CN3CN1CP(C2)C3 [PTA, 1,3,5-triazaphosphaadamantane] | much smaller but still visible zones of bacterial growth inhibition | 
5 | disilver(I)-bis(μ-3-methyl-pyrazolido)bis(PTA) [complex (29)] |  | eradication of the bacterial culture (P. aeruginosa; P. aeruginosa, lowest concentration tested, 31.25 μg/mL): ~90%; solubility in water and several bacterial growth media (Solubility (qualitative)): readily soluble
6 | disilver(I)-bis(μ-4-Cl-pyrazolido)(PPh3)3 [complex (2)] | minimal bacterial clearance | 
7 | disilver(I)-bis(μ-4-Cl-pyrazolido)tetrakis(PPh3) [complex (1)] | minimal bacterial clearance | 
8 | disilver(I)-bis(μ-4-Cl-pyrazolido)tetrakis(PTA) [complex (5)] | Visible circular zones of bacterial clearing | IC50, eradication of the bacterial culture (P. aeruginosa; P. aeruginosa culture, optical density, increasing concentrations): > 2000 µg/mL; solubility in aqueous media (Solubility (qualitative); aqueous media): highly soluble; solubility in water and several bacterial growth media (Solubility (qualitative); water and several bacterial growth media): readily soluble
